Converted amounts (≈) assume the structure as drawn. “And” between values parts separate entries of the source, which are not always exact repeats. Equal entries are not always repeated. Where two headings read alike, the source gives them in different places.
Key:
[1] = tested on: human non-small-cell lung cancer cell lines H460; assay: SRB growth inhibition of lung cancer cells; assay type: cell-based
Description: (§1) After letting to stand for 10 minutes at room temperature, the supernatant of each well was removed, and each well was washed with 200 μL H2O once. […] Each of the plates was then placed in the laminar flow cabinet for 1 hour for air dry. 50 μL 0.4% sulforhodamine B (SRB) dye was added into each well of the 96-well plate. […] Each of the plates was then placed in the laminar flow cabinet for 40 minutes to 1 hour for air dry. 1×Tris-Base solution with pH 7.0 to 7.4 was added to each well of the 96-well plate to dissolve the protein complex formed in the bottom of each well, followed by tapping the 96-well plate, allowing the complex in each well to be dissolved uniformly. Absorption of each well under 515 nm was read. […] Each of the experimental group was performed in triplet.

[2] = first dissolution test in DMSO or water; settings: for Total volume of DMSO for dissolving the p-TSA derivatives / Total volume of water for dissolving the p-TSA derivatives: first dissolution test, amount for a 3M solution in 0.5 mL, up to 15000 μL; for solubility: thermodynamic from solid
Description: Each of the powder of p-TSA derivatives was duplicated, placed in each 15 mL centrifuge tube, followed by adding 200 μL DMSO or 200 μL water and shaking for 10 to 20 seconds for dissolution observation. If the powder was not dissolved, additional DMSO or water was added, and then the mixture was shaken. The tube was left to stand for 10 minutes for observation if the powder was still not dissolved after adding 1 mL DMSO or 1 mL water. If the powder was still not dissolved after adding 5 mL DMSO or 5 mL water, additional 1 mL DMSO or 1 mL water was added, and then the mixture was shaken for 30 seconds. If the powder was still not dissolved after adding 10 mL DMSO or 10 mL water, the tube was left to stand for 12 to 16 hours and observed on the next day. DMSO or water was added into the tube having the undissolved p-TSA derivatives up to 15 mL, followed by shaking for 30 minutes for observation.

[3] = tested on: human liver cancer cell lines Hep3B; assay: SRB growth inhibition of liver cancer cells; assay type: cell-based
Description: as §1

[4] = Homo sapiens, NCI-H460, 48 h, derivative dissolved in DMSO, 48 hours, SRB, read-out: IC50 of H460 in DMSO
[5] = Homo sapiens, Hep3B, 48 h, derivative dissolved in DMSO, 48 hours, SRB, read-out: IC50 of Hep3B in DMSO
[6] = Homo sapiens, NCI-H460, 48 h, derivative dissolved in water, 48 hours, SRB, read-out: IC50 of H460 in water
[7] = Homo sapiens, Hep3B, 48 h, derivative dissolved in water, 48 hours, SRB, read-out: IC50 of Hep3B in water
[8] = derivative dissolved in DMSO, 48 hours, SRB, read-out: IC50 of H460 in DMSO
[9] = DMSO, organic solvent or mixture
[10] = derivative dissolved in DMSO, 48 hours, SRB, read-out: IC50 of Hep3B in DMSO

Row | Compound | IC50 [1, 4] [µM] | Total volume of DMSO for dissolving the p-TSA derivatives ([2]; DMSO) | Total volume of water for dissolving the p-TSA derivatives ([2]; water) | IC50 [3, 5] [µM] | other results
1 | Cc1ccc(S(=O)(=O)NCC(C)O)cc1 (stereo not drawn) [PTSA024] | 3220 | 515 µL | insoluble in 15000 μL | 3830 | –
2 | Cc1ccc(S(=O)(=O)NCCS(=O)(=O)O)cc1 [PTSA048] | > 3000 | 2000 µL | 10000 µL | > 3000 | IC50 [1, 6]: > 3000 µM; IC50 [3, 7]: > 3000 µM
3 | Cc1ccc(S(=O)(=O)NCCN(C)C)cc1.Cl [PTSA051] | 1820 | 1500 µL | 1000 µL | 1410 | IC50 [1, 6]: 1750 µM; IC50 [3, 7]: 1440 µM
4 | Cc1ccc(S(=O)(=O)N2CC(O)C2)cc1 [PTSA037] | 288 | 605 µL | insoluble in 15000 μL | 265 | IC50 [1, 8]: 259 µM; solubility [2, 9]: 832 mg/mL (≈ 3660 mM); solubility ([2]; water): < 50 mg/mL; IC50 [3, 10]: 274 µM and 264 µM
5 | COC(=O)NS(=O)(=O)c1ccc(C)cc1 [PTSA011] | 5490 | 560 µL | insoluble in 15000 μL | 4560 | –
6 | Cc1ccc(S(=O)(=O)N2CCC(N)CC2)cc1.Cl [PTSA053] | – | 15000 µL | 2500 µL | – | IC50 [1, 6]: 691 µM; IC50 [3, 7]: 770 µM
7 | Cc1ccc(S(=O)(=O)NC[C@H](C)O)cc1 [PTSA023] | 2890 | 500 µL | insoluble in 15000 μL | 2650 | –
8 | Cc1ccc(S(=O)(=O)N2CC(C(N)=O)C2)cc1 [PTSA062] | > 2250 | 3000 µL | insoluble in 15000 μL | > 2250 | –
9 | Cc1ccc(S(=O)(=O)N2CCC[C@H]2CO)cc1 [PTSA033] | 1420 | 500 µL | insoluble in 15000 μL | 1760 | –
10 | COCCNS(=O)(=O)c1ccc(C)cc1 [PTSA042] | 2490 | 475 µL | insoluble in 15000 μL | 2750 | –
11 | Cc1ccc(S(=O)(=O)N2CC3(COC3)C2)cc1 [PTSA041] | > 2000 | 4000 µL | insoluble in 15000 μL | > 2000 | –
12 | Cc1ccc(S(=O)(=O)NC(=O)NS(=O)(=O)c2ccc(C)cc2)cc1 [PTSA018] | – | 2000 µL | 2500 µL | – | IC50 [1, 6]: > 3000 µM; IC50 [1, 8]: > 3000 µM; IC50 [3, 7]: > 3000 µM; IC50 [3, 10]: > 3000 µM
13 | Cc1ccc(S(=O)(=O)N2CCC(O)C2)cc1 (stereo not drawn) [PTSA036] | 2540 | 530 µL | insoluble in 15000 μL | 3400 | –
14 | Cc1ccc(S(=O)(=O)NCCCO)cc1 [PTSA021] | 2450 | 495 µL | insoluble in 15000 μL | 2810 | –
15 | Cc1ccc(S(=O)(=O)NCC(=O)O)cc1 [PTSA044] | 7930 | 600 µL | insoluble in 15000 μL | 9110 | –
16 | Cc1ccc(S(=O)(=O)N2CC(=O)C2)cc1 [PTSA066] | 906 | 3000 µL | insoluble in 15000 μL | 733 | –
17 | Cc1ccc(S(=O)(=O)N2CC(C(=O)[O-])C2)cc1.[Na+] [PTSA061] | – | 2500 µL | 750 µL | – | IC50 ([1]; Homo sapiens, NCI-H460, 48 h, read-out: IC50 of H460 in DMSO): > 2250 µM; IC50 ([1]; Homo sapiens, NCI-H460, 48 h, read-out: IC50 of H460 in water): > 8800 µM; IC50 ([3]; Homo sapiens, Hep3B, 48 h, read-out: IC50 of Hep3B in DMSO): > 2250 µM; IC50 ([3]; Homo sapiens, Hep3B, 48 h, read-out: IC50 of Hep3B in water): > 8800 µM

Row | Compound | IC50 [1, 4] [µM] | Total volume of DMSO for dissolving the p-TSA derivatives ([2]; DMSO) | Total volume of water for dissolving the p-TSA derivatives ([2]; water) | IC50 [3, 5] [µM] | other results
18 | Cc1ccc(S(=O)(=O)NC(C)CO)cc1 (stereo not drawn) [PTSA025] | 3150 | 560 µL | insoluble in 15000 μL | 3540 | –
19 | Cc1ccc(S(=O)(=O)N[C@@H](C)CO)cc1 [PTSA026] | 3250 | 500 µL | insoluble in 15000 μL | 3920 | –
20 | Cc1ccc(S(=O)(=O)N2CC(N)C2)cc1.Cl [PTSA074] | > 1800 | 2500 µL | 10000 µL | > 1800 | IC50 [1, 6]: 2220 µM; IC50 [3, 7]: 2130 µM
21 | COC(=O)NS(=O)(=O)c1ccc(C)cc1 [PTSA012] | – | 680 µL | 500 µL | – | IC50 [1, 6]: > 5000 µM; IC50 [1, 8]: 6110 µM; IC50 [3, 10]: 7500 µM
22 | CC(=O)NS(=O)(=O)c1ccc(C)cc1 [PTSA001] | – | 510 µL | insoluble in 15000 μL | – | IC50 [1, 8]: 7720 µM; IC50 [3, 10]: > 9000 µM
23 | Cc1ccc(S(=O)(=O)N[C@@H](CO)C(=O)O)cc1 [PTSA046] | > 10000 | 845 µL | insoluble in 15000 μL | > 10000 | –
24 | Cc1ccc(S(=O)(=O)NCC(F)(F)F)cc1 [PTSA050] | – | 590 µL | insoluble in 15000 μL | – | –
25 | Cc1ccc(S(=O)(=O)NC(C)(CO)CO)cc1 [PTSA030] | 3300 | 695 µL | insoluble in 15000 μL | 4310 | –
26 | COCCCNS(=O)(=O)c1ccc(C)cc1 [PTSA043] | 1610 | 505 µL | insoluble in 15000 μL | 1840 | –
27 | CON=C1CN(S(=O)(=O)c2ccc(C)cc2)C1 [PTSA072] | > 1120 | 4500 µL | insoluble in 15000 μL | > 1120 | –
28 | Cc1ccc(S(=O)(=O)NC(CO)CO)cc1 [PTSA029] | 1970 | 500 µL | insoluble in 15000 μL | 3050 | –
29 | Cc1ccc(S(=O)(=O)N2CCC(CN)CC2)cc1.Cl [PTSA055] | 617 | 2000 µL | 3000 µL | 596 | IC50 [1, 6]: 651 µM; solubility [2, 9]: 229 mg/mL; solubility ([2]; water): 152 mg/mL; IC50 [3, 7]: 610 µM
30 | Cc1ccc(S(=O)(=O)NC2COC2)cc1 [PTSA040] | 431 | 475 µL | insoluble in 15000 μL | 329 | IC50 [1, 8]: 406 µM; solubility [2, 9]: 762 mg/mL (≈ 3350 mM); solubility ([2]; water): < 50 mg/mL; IC50 [3, 10]: 413 µM
31 | NS(=O)(=O)c1ccc(C(=O)O)cc1 [PTSA004] | 9670 | 960 (with pipetting) μL | insoluble in 15000 μL | > 7000 | –
32 | Cc1ccc(S(=O)(=O)NCCO)cc1 [PTSA020] | 2610 | 490 µL | 10000 µL | 2640 | IC50 [1, 6]: > 1000 µM; IC50 [3, 7]: > 1000 µM
33 | Cc1ccc(S(=O)(=O)N2CC(=NO)C2)cc1 [PTSA070] | – | 850 µL | insoluble in 15000 μL | – | –

Reference: patent US10485773B2, “Benzenesulfonamide derivatives and method for treating cancer” (GONGWIN BIOPHARM HOLDINGS CO., LTD., priority 2016, dated 2019)
